In patent US10155004B2, “17-hydroxy-17-pentafluoroethyl-estra-4,9(10)-dien-11-aryl derivatives, method of production thereof and use thereof for the treatment of diseases” (BAYER INTELLECTUAL PROPERTY GMBH, priority 2009, dated 2018):

How the values were obtained:
[1] = Metabolic stability in human liver microsomes (HLM); format: in vitro ADME; settings: from HLM half-life, well-stirred model, phase I reactions; 1 μM, 0.5 mg/ml protein
Protocol: EXAMPLE 18 METABOLIC STABILITY OF (11β,17β)-17-HYDROXY-11[4-(METHYLSULPHONYL)PHENYL]-17-(PENTAFLUOROETHYL)ESTRA-4,9-DIEN-3-ONE AND (11β,17β)-17-HYDROXY-11-[4′-(METHYLSULPHONYL)-BIPHENYL-4-YL]-17-(PENTAFLUOROETHYL)ESTRA-4,9-DIEN-3-ONE IN HUMAN LIVER MICROSOMES (HLM)
Isolated human liver microsomes (HLM) were used for assessing the metabolic stability of compounds of general formula I.
Incubations were carried out with 2.4 ml of HLM solution (0.5 mg/ml protein content), 30 μl of the test compound (final concentration 1 μM) and 0.6 ml of the cofactor mixture (=NADPH-generating system of 3 IU glucose-6-phosphate dehydrogenase, 14.6 mg glucose-6-phosphate, 1.2 mg NADP) at 37° C. in 100 mM phosphate buffer at pH 7.4. Samples are taken at 6 time points (2-60 min), precipitated with an equal volume of methanol and the recovery of the test substances used in the supernatant is determined by LC-MS/MS analysis. The intrinsic clearance of the substance in the liver microsome preparation can be calculated from the half-life found for the breakdown of the substance. Based on this, together with various physiological characteristics according to the well-stirred model, it is then possible to predict a (metabolic) in vivo clearance with respect to phase I reactions. […]

[2] = target: T1, human progesterone receptor A (Homo sapiens, UniProt P06401); assay: Progesterone receptor-antagonistic action in stably transfected SK-N-MC cells, MTV-LUC reporter (PR-A); format: cell-based; settings: antagonistic efficacy vs 0.1 nmol/l promegestone
T1 construct: expressed in transfected cells; host or cells: SK-N-MC human neuroblastoma cells, stably transfected
T1 sequence (P06401 1-769 isoform P06401-2): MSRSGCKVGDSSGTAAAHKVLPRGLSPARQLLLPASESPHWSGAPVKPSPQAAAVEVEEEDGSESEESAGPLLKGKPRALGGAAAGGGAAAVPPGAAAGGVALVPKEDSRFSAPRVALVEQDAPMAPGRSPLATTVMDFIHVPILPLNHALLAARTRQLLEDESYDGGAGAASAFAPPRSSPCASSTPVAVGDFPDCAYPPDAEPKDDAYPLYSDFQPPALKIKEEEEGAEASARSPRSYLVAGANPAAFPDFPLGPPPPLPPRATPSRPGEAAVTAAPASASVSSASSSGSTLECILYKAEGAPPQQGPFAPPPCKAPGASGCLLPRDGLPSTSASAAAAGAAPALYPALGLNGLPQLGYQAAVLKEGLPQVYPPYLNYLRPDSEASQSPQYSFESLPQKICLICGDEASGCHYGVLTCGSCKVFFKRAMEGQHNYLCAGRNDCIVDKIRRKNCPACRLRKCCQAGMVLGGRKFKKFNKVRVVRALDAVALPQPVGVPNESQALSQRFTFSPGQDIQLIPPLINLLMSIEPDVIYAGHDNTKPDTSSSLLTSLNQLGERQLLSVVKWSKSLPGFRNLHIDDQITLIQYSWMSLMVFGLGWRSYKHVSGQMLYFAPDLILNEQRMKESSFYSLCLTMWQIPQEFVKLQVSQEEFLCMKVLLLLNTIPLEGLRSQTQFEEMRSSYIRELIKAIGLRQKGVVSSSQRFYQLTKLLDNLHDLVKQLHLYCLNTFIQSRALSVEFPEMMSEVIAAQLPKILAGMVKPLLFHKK
Protocol: EXAMPLE 16 PROGESTERONE RECEPTOR-ANTAGONISTIC ACTION IN STABLE TRANSFECTANTS OF HUMAN NEUROBLASTOMA CELLS (SK-N-MC CELLS) WITH THE HUMAN PROGESTERONE A OR PROGESTERONE B RECEPTOR AND AN MTV-LUC REPORTER CONSTRUCT
SK-N-MC cells (human neuroblastoma cells), which have been stably transfected with plasmids, which express the human progesterone receptor B (pRChPR-B-neo) or the human progesterone receptor A (pRChPR-A-neo) and a reporter construct (pMMTV-LUC), were incubated for 24 hours either in the absence (negative control) or in the presence of increasing amounts of the respective test compound (0.01 nmol/l, 0.1 nmol/l 1 nmol/l, 10 nmol/l, 100 nmol/l and 1 μmol/l), in order to determine the agonistic efficacy. As positive control of reporter gene induction, the cells were treated with the synthetic gestagen promegestone (0.01 nmol/l, 0.1 nmol/l, 1 nmol/l, 10 nmol/l, 100 nmol/l and 1 μmol/l). For determination of the antagonistic activity, the cells were treated with 0.1 nmol/1 promegestone and additionally with increasing amounts of the respective test compound (0.01 nmol/l, 0.1 nmol/l, 1 nmol/l, 10 nmol/l, 100 nmol/l and 1 μmol/l). The activity of the LUC reporter gene (LUC=luciferase) was determined in the cell lysates and was measured as RLU (relative light units). All measured values are given as percentage efficacy and as EC50 or IC50 concentrations.
11β-(4-Acetylphenyl)-20,20,21,21,21-pentafluoro-17-hydroxy-19-nor-17α-pregna-4,9-dien-3-one and 20,20,21,21,21-pentafluoro-17-hydroxy-11β-[4-(hydroxyacetyl)phenyl]-19-nor-17α-pregna-4,9-dien-3-one, very potent and therefore preferred examples from WO98/34947 and WO2008/058767, were tested as comparative compounds along with the test compound.

For `C[C@]12C[C@H](c3ccc(S(C)(=O)=O)cc3)C3=C4CCC(=O)C=C4CC[C@H]3[C@@H]1CC[C@@]2(O)C(F)(F)C(F)(F)F` [Example 4, (11β,17β)-17-Hydroxy-11-[4-(methylsulphonyl)phenyl]-17-(pentafluoroethyl)estra-4,9-dien-3-one], the “(metabolic) in vivo clearance in humans predicted” value [1] was 1.7 mL/min/kg and the “Progesterone receptor A (PR-A) Efficacy” value [2] was 100%.
